{
  "source": "patent US9113629B2",
  "about": "“4-amino-6-(4-substituted-phenyl)-picolinates and 6-amino-2-(4-substituted-phenyl)-pyrimidine-4-carboxylates and their use as herbicides” (DOW AGROSCIENCES LLC, priority 2013, dated 2015)",
  "assay_in_all_cases": "Post-emergent Test III, herbicidal activity in wheat and barley",
  "type_in_all_cases": "in vivo",
  "key": {"[1]": {"test_system": "PHAMI: lesser canary grass (Phalaris minor)", "in_short": "(§1)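 GR20, GR50, GR80 and GR90 come from probit analysis of visual injury scores (0 = none, 100 = complete kill) taken 21 d after treatment. Foliar application was by track sprayer delivering 187 L/ha at five rates, from high down to 1/16×, onto greenhouse plants at the 2–3 leaf stage, with solvent-blank controls.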"}, "[2]": {"test_system": "PAPRH: common poppy (Papaver rhoeas)", "in_short": "as §1"}, "[3]": {"test_system": "STEME: common chickweed (Stellaria media)", "in_short": "as §1"}, "[4]": {"test_system": "SASKR: Russian thistle (Salsola iberica)", "settings": "21 days after application", "in_short": "as §1"}, "[5]": {"test_system": "VIOSS: wild pansy (Viola tricolor), field violet (Viola arvensis)", "settings": "21 days after application", "in_short": "as §1"}, "[6]": {"settings": "probit analysis, dose for growth reduction of 50 percent, 21 days after application"}, "[7]": {"settings": "probit analysis, dose for growth reduction of 80 percent, 21 days after application"}, "[8]": {"settings": "probit analysis, dose for 50 percent growth reduction"}, "[9]": {"settings": "probit analysis, dose for 80 percent growth reduction"}},
  "data": [
    {"smiles": "COC(=O)c1nc(-c2ccc(Cl)c(F)c2)c(F)c(N)c1Cl", "note": "[Compound 216]", "values": [
      {"measurement": "pest or weed control at 35 g/ha", "setting": "[1]; Phalaris minor, post-emergence, 504 h, 35 g ai/ha, read-out: Visual Growth Reduction (%) 21 Days After Application PHAMI", "value": "0 to 29", "unit": "%"},
      {"measurement": "pest or weed control at 70 g/ha", "setting": "[1]; Phalaris minor, post-emergence, 504 h, 70 g ai/ha, read-out: Visual Growth Reduction (%) 21 Days After Application PHAMI", "value": "30 to 44", "unit": "%"},
      {"measurement": "pest or weed control at 140 g/ha", "setting": "[1]; Phalaris minor, post-emergence, 504 h, 140 g ai/ha, read-out: Visual Growth Reduction (%) 21 Days After Application PHAMI", "value": "75 to 84", "unit": "%"},
      {"measurement": "GR50 PHAMI", "setting": "[1]; [6]", "value": ">140", "unit": "g ai/ha"},
      {"measurement": "GR80 PHAMI", "setting": "[1]; [7]", "value": ">140", "unit": "g ai/ha"},
      {"measurement": "pest or weed control at 35 g/ha", "setting": "[2]; Papaver rhoeas, post-emergence, 504 h, 35 g ai/ha, read-out: Visual Growth Reduction (%) 21 Days After Application PAPRH", "value": "95 to 100", "unit": "%"},
      {"measurement": "pest or weed control at 70 g/ha", "setting": "[2]; Papaver rhoeas, post-emergence, 504 h, 70 g ai/ha, read-out: Visual Growth Reduction (%) 21 Days After Application PAPRH", "value": "95 to 100", "unit": "%"},
      {"measurement": "pest or weed control at 140 g/ha", "setting": "[2]; Papaver rhoeas, post-emergence, 504 h, 140 g ai/ha, read-out: Visual Growth Reduction (%) 21 Days After Application PAPRH", "value": "95 to 100", "unit": "%"},
      {"measurement": "GR50 PAPRH", "setting": "[2]; [6]", "value": 1, "unit": "g ai/ha"},
      {"measurement": "GR80 PAPRH", "setting": "[2]; [7]", "value": 1, "unit": "g ai/ha"},
      {"measurement": "pest or weed control at 35 g/ha", "setting": "[3]; Stellaria media, post-emergence, 504 h, 35 g ai/ha, read-out: Visual Growth Reduction (%) 21 Days After Application STEME", "value": "30 to 44", "unit": "%"},
      {"measurement": "pest or weed control at 70 g/ha", "setting": "[3]; Stellaria media, post-emergence, 504 h, 70 g ai/ha, read-out: Visual Growth Reduction (%) 21 Days After Application STEME", "value": "30 to 44", "unit": "%"},
      {"measurement": "pest or weed control at 140 g/ha", "setting": "[3]; Stellaria media, post-emergence, 504 h, 140 g ai/ha, read-out: Visual Growth Reduction (%) 21 Days After Application STEME", "value": "75 to 84", "unit": "%"},
      {"measurement": "GR50 STEME", "setting": "[3]; [6]", "value": 52, "unit": "g ai/ha"},
      {"measurement": "GR80 STEME", "setting": "[3]; [7]", "value": ">140", "unit": "g ai/ha"}
    ]},
    {"smiles": "COC(=O)c1nc(-c2ccc(Br)c(F)c2)c(F)c(N)c1Cl", "note": "[Compound 49]", "values": [
      {"measurement": "pest or weed control at 35 g/ha", "setting": "[4]; Salsola tragus, post-emergence, 504 h, 35 g ai/ha, read-out: Visual Gorowth Reduction (%) 21 days After Application SASKR", "value": "75 to 84", "unit": "%"},
      {"measurement": "pest or weed control at 70 g/ha", "setting": "[4]; Salsola tragus, post-emergence, 504 h, 70 g ai/ha, read-out: Visual Gorowth Reduction (%) 21 days After Application SASKR", "value": "85 to 94", "unit": "%"},
      {"measurement": "GR50 SASKR", "setting": "[4]; [8]", "value": 1, "unit": "g ai/ha"},
      {"measurement": "GR80 SASKR", "setting": "[4]; [9]", "value": 30, "unit": "g ai/ha"},
      {"measurement": "pest or weed control at 35 g/ha", "setting": "[5]; Viola tricolor, post-emergence, 504 h, 35 g ai/ha, read-out: Visual Gorowth Reduction (%) 21 days After Application VIOSS", "value": "95 to 100", "unit": "%"},
      {"measurement": "pest or weed control at 70 g/ha", "setting": "[5]; Viola tricolor, post-emergence, 504 h, 70 g ai/ha, read-out: Visual Gorowth Reduction (%) 21 days After Application VIOSS", "value": "95 to 100", "unit": "%"},
      {"measurement": "GR50 VIOSS", "setting": "[5]; [8]", "value": 5, "unit": "g ai/ha"},
      {"measurement": "GR80 VIOSS", "setting": "[5]; [9]", "value": 8, "unit": "g ai/ha"}
    ]}
  ]
}
